The values that follow come from patent publication US20260109707A1, “HETEROBIFUNCTIONAL COMPOUNDS AND METHODS OF TREATING DISEASE” (Halda Therapeutics OpCo. Inc., priority 2022, published 2026).

Experiment [1] concerns T-Rex 293 cell line SC3 cells lacking increased expression of androgen receptor protein. Put plainly: Cellular growth inhibition assay, T-Rex 293 SC3 cells without doxycycline (CellTiter-Glo, 72 hours). In kind it is cell-based. Conditions: T-Rex 293 cell line SC3 cells not exposed to doxycycline (lacking increased androgen receptor expression). In short, it runs like this:
(§1)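 Growth inhibition is measured in an inducible AR-expressing T-Rex 293 clone, SC3, cultured with or without 10 ng/mL doxycycline in hormone-depleted medium. Test compounds are applied for 72 hours. GI50 values derive from CellTiter-Glo 2.0 signal fitted by four-parameter regression.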
(In ATP-based viability assays light output follows the ATP content of the culture.)

In another experiment the test system is T47D cells. Put plainly: Cellular growth inhibition assay for T47D cells (CellTiter-Glo, 72 hours). Conditions: 72 hours treatment. In kind it is cell-based, human. In short, it runs like this:
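Growth inhibition as GI50, fitted with four parameters to CellTiter-Glo luminescence after 72 h of compound exposure (0.5% DMSO). Cells were T47D, grown in insulin-supplemented (0.2 units/mL) DMEM with 10% FBS and treated one day post-seeding.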

The test system of another experiment is VCaP cells. Put plainly: Cellular growth inhibition assay for VCaP cells (CellTiter-Glo, 72 hours). The format is cell-based, human. In short, it runs like this: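 Luminescent viability signal after 72 h of compound exposure gave GI50 values by four-parameter nonlinear regression. Compounds were added in 0.5% DMSO to cells plated 24 h earlier at 5000/well in DMEM containing 10% FBS.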

Experiment [2] relates to T-Rex 293 cell line SC3 cells having increased expression of androgen receptor protein due to exposure to doxycycline. As to the kind of experiment: Cellular growth inhibition assay, T-Rex 293 SC3 cells with doxycycline (CellTiter-Glo, 72 hours). Conditions: T-Rex 293 SC3 cells with increased androgen receptor expression due to doxycycline (10 ng/mL). In kind it is cell-based. The essentials:
as §1

In general, GI50 refers to the concentration that inhibits growth by half.

Where two headings read alike, the source gives them in different places. Where only a bound is given, the exact number is not on record here.

Regarding `Cc1sc2c(c1C)C(c1ccc(N3CCN(C4CCN(c5ccc(C(=O)N[C@H]6CC[C@H](Oc7ccc(C#N)c(Cl)c7)CC6)nn5)CC4)C3=O)cc1)=NC(Cc1ncco1)c1nnc(C)n1-2` (stereo partly drawn) [I-413], the GI50 in experiment [1] was greater than 3000 nM; in the experiment with T47D cells, 1500 to 3000 nM; with VCaP cells it was 1500 to 3000 nM; in experiment [2] (72 h), less than 500 nM.

Turning to `Cc1sc2c(c1C)C(c1ccc(N3CCN(C4CCN(c5ccc(C(=O)N[C@H]6CC[C@H](Oc7ccc(C#N)c(Cl)c7)CC6)nn5)CC4)C3=O)cc1)=NC(Cc1ncco1)c1nnc(C)n1-2` (stereo partly drawn) [I-414], the GI50 (in experiment [1]; in the experiment with T47D cells; with VCaP cells; in experiment [2]) was less than 500 nM throughout.

For `Cc1sc2c(c1C)C(c1ccc(N3CCC4(CC3)CC(Cc3ccc(C(=O)N[C@H]5CC[C@H](Oc6ccc(C#N)c(Cl)c6)CC5)nn3)C4)cc1)=NC(Cc1ncco1)c1nnc(C)n1-2` (stereo partly drawn) [I-415], the GI50 in experiment [1] is greater than 3000 nM; with T47D cells (Homo sapiens, T47D, 72 h) it was 500 to 1500 nM; in the experiment with VCaP cells (Homo sapiens, VCaP, 72 h), less than 500 nM; in experiment [2] (72 h) it was less than 500 nM.

For `Cc1sc2c(c1C)C(c1ccc(N3CCC4(CC3)CC(Cc3ccc(C(=O)N[C@H]5CC[C@H](Oc6ccc(C#N)c(Cl)c6)CC5)nn3)C4)cc1)=NC(Cc1ncco1)c1nnc(C)n1-2` (stereo partly drawn) [I-416], the GI50 in experiment [1] is 500 to 1500 nM; in the experiment on T47D cells, less than 500 nM; with VCaP cells, less than 500 nM; in experiment [2], less than 500 nM.

As for `Cc1sc2c(c1C)C(c1ccc(OC3CC4(CCN(c5ccc(C(=O)N[C@H]6CC[C@H](Oc7ccc(C#N)c(Cl)c7)CC6)nn5)CC4)C3)cc1)=NC1(CC1)c1nnc(C)n1-2` [I-417], the GI50 is greater than 3000 nM in experiment [1] (72 h); 500 to 1500 nM in the experiment on T47D cells (Homo sapiens, T47D, 72 h); greater than 3000 nM in the experiment with VCaP cells (Homo sapiens, VCaP, 72 h); less than 500 nM in experiment [2] (72 h).

In the case of `Cc1sc2c(c1C)C(c1ccc(C#CC3CC4(C3)CN(c3ccc(C(=O)N[C@H]5CC[C@H](Oc6ccc(C#N)c(Cl)c6)CC5)nn3)C4)cc1)=NC1(CC1)c1nnc(C)n1-2` [I-418], the GI50 in experiment [1] (72 h) is less than 500 nM; with T47D cells (Homo sapiens, T47D, 72 h) it was less than 500 nM; in the experiment on VCaP cells (Homo sapiens, VCaP, 72 h) it was less than 500 nM; in experiment [2] (72 h), less than 500 nM.

In the case of `Cc1sc2c(c1C)C(c1ccc(C#CC3CC4(CCCN(c5ccc(C(=O)NC6CCC(Oc7ccc(C#N)c(Cl)c7)CC6)nn5)C4)C3)cc1)=NCc1nnc(C)n1-2` (stereo not drawn) [I-419], the GI50 in experiment [1] (72 h) is greater than 3000 nM; with T47D cells (Homo sapiens, T47D, 72 h), less than 500 nM; in the experiment on VCaP cells (Homo sapiens, VCaP, 72 h), less than 500 nM; in experiment [2] (72 h), less than 500 nM.

For `Cc1sc2c(c1C)C(c1ccc(C#CC3CC4(CCCN(c5ccc(C(=O)N[C@H]6CC[C@H](Oc7ccc(C#N)c(Cl)c7)CC6)nn5)C4)C3)cc1)=NCc1nnc(C)n1-2` (stereo partly drawn) [I-420], the GI50 in experiment [1] (72 h) was greater than 3000 nM; in the experiment on T47D cells (Homo sapiens, T47D, 72 h), 1500 to 3000 nM; in the experiment on VCaP cells (Homo sapiens, VCaP, 72 h), less than 500 nM; in experiment [2] (72 h), less than 500 nM.

Consider `Cc1sc2c(c1C)C(c1ccc(C#CC3CC4(C3)CN(c3ccc(C(=O)N[C@H]5CC[C@H](Oc6ccc(C#N)c(Cl)c6)CC5)nn3)C4)cc1)=NCc1nnc(C)n1-2` [I-421], for which the GI50 in experiment [1] (72 h) was less than 500 nM; in the experiment with T47D cells (Homo sapiens, T47D, 72 h), 500 to 1500 nM; with VCaP cells (Homo sapiens, VCaP, 72 h) it was less than 500 nM; in experiment [2] (72 h), less than 500 nM.

On to `Cc1sc2c(c1C)C(c1ccc(N3CCC4(CCCN(c5ccc(C(=O)N[C@H]6CC[C@H](Oc7ccc(C#N)c(Cl)c7)CC6)nn5)C4)CC3)cc1)=NCc1nnc(C)n1-2` [I-422], for which the GI50 is greater than 3000 nM in experiment [1] (72 h); 500 to 1500 nM in the experiment with T47D cells (Homo sapiens, T47D, 72 h); less than 500 nM with VCaP cells (Homo sapiens, VCaP, 72 h); less than 500 nM in experiment [2] (72 h).

For the compound `Cc1sc2c(c1C)C(c1ccc(C(C)(C)C3CC4(CCCN(c5ccc(C(=O)N[C@H]6CC[C@H](Oc7ccc(C#N)c(Cl)c7)CC6)nn5)C4)C3)cc1)=N[C@@H](C)c1nnc(C)n1-2` (stereo partly drawn) [I-423], the GI50 in experiment [1] (72 h) is 1500 to 3000 nM; in the experiment with T47D cells (Homo sapiens, T47D, 72 h), 500 to 1500 nM; with VCaP cells (Homo sapiens, VCaP, 72 h) it was greater than 3000 nM; in experiment [2] (72 h) it was less than 500 nM.

`Cc1sc2c(c1C)C(c1ccc(OCC3CC4(CCCN(c5ccc(C(=O)N[C@H]6CC[C@H](Oc7ccc(C#N)c(Cl)c7)CC6)nn5)C4)C3)nc1)=N[C@@H](C)c1nnc(C)n1-2` (stereo partly drawn) [I-424]: the GI50 in experiment [1] is greater than 3000 nM; with T47D cells (Homo sapiens, T47D, 72 h), 500 to 1500 nM; in the experiment with VCaP cells (Homo sapiens, VCaP, 72 h), less than 500 nM; in experiment [2] (72 h), less than 500 nM.

With `Cc1sc2c(c1C)C(c1ccc(OCC3CC4(CCCN(c5ccc(C(=O)N[C@H]6CC[C@H](Oc7ccc(C#N)c(Cl)c7)CC6)nn5)C4)C3)nc1)=N[C@@H](C)c1nnc(C)n1-2` (stereo partly drawn) [I-425], the GI50 was 500 to 1500 nM in experiment [1], 500 to 1500 nM in the experiment on T47D cells, less than 500 nM with VCaP cells and less than 500 nM in experiment [2].

On to `Cc1sc2c(c1C)C(c1ccc(C#CC3CC4(C3)CN(c3ccc(C(=O)N[C@H]5CC[C@H](Oc6ccc(C#N)c(Cl)c6)CC5)nn3)C4)nc1)=N[C@@H](C)c1nnc(C)n1-2` [I-426], for which the GI50 is less than 500 nM in experiment [1] (72 h); 500 to 1500 nM in the experiment on T47D cells (Homo sapiens, T47D, 72 h); less than 500 nM with VCaP cells (Homo sapiens, VCaP, 72 h); less than 500 nM in experiment [2] (72 h).

Regarding `Cc1sc2c(c1C)C(c1ccc(N3CCC4(CCCN(c5ccc(C(=O)N[C@H]6CC[C@H](Oc7ccc(C#N)c(Cl)c7)CC6)nn5)C4)CC3)cc1)=N[C@@H](C)c1nnc(C)n1-2` [I-427], the GI50 in experiment [1] was 500 to 1500 nM; with T47D cells, 500 to 1500 nM; in the experiment on VCaP cells (Homo sapiens, VCaP, 72 h), less than 500 nM; in experiment [2] (72 h), less than 500 nM.

On to `Cc1sc2c(c1C)C(c1ccc(N3CCC4(CCCN(c5ccc(C(=O)N[C@H]6CC[C@H](Oc7ccc(C#N)c(Cl)c7)CC6)nn5)C4)CC3)nc1)=N[C@@H](C)c1nnc(C)n1-2` [I-428], for which the GI50 is greater than 3000 nM in experiment [1] (72 h); 500 to 1500 nM with T47D cells (Homo sapiens, T47D, 72 h); less than 500 nM in the experiment on VCaP cells (Homo sapiens, VCaP, 72 h); less than 500 nM in experiment [2] (72 h).

Turning to `Cc1sc2c(c1C)C(c1ccc(N3CCC4(CCCN(c5ccc(C(=O)N[C@H]6CC[C@H](Oc7ccc(C#N)c(Cl)c7)CC6)nn5)C4)CC3)cc1)=N[C@@H](C)c1nnc(C)n1-2` [I-429], the GI50 was greater than 3000 nM in experiment [1], greater than 3000 nM with T47D cells, less than 500 nM in the experiment on VCaP cells and less than 500 nM in experiment [2].

In the case of `Cc1sc2c(c1C)C(c1ccc(N3CCC4(CC3)CCN(c3ccc(C(=O)N[C@H]5CC[C@H](Oc6ccc(C#N)c(Cl)c6)CC5)nn3)C4)cc1)=N[C@@H](C)c1nnc(C)n1-2` [I-430], the GI50 (in experiment [1]; in the experiment with T47D cells; with VCaP cells; in experiment [2]) was less than 500 nM each time.

For `Cc1sc2c(c1C)C(c1ccc(OC3CC4(CCN(c5ccc(C(=O)N[C@H]6CC[C@H](Oc7ccc(C#N)c(Cl)c7)CC6)nn5)CC4)C3)nc1)=N[C@@H](C)c1nnc(C)n1-2` [I-433], the GI50 was 500 to 1500 nM in experiment [1]; 500 to 1500 nM in the experiment on T47D cells (Homo sapiens, T47D, 72 h); greater than 3000 nM in the experiment with VCaP cells; less than 500 nM in experiment [2] (72 h).

Take `Cc1sc2c(c1C)C(c1ccc(N3CC(C4CCN(c5ccc(C(=O)N[C@H]6CC[C@H](Oc7ccc(C#N)c(Cl)c7)CC6)nn5)CC4)C3)cc1)=N[C@@H](C)c1nnc(C)n1-2` [I-434]: the GI50 in experiment [1] (72 h) was less than 500 nM; in the experiment on T47D cells (Homo sapiens, T47D, 72 h), 500 to 1500 nM; with VCaP cells (Homo sapiens, VCaP, 72 h), less than 500 nM; in experiment [2] (72 h), less than 500 nM.

As for `Cc1sc2c(c1C)C(c1ccc(OC3CC4(C3)CC3(CCN(c5ccc(C(=O)N[C@H]6CC[C@H](Oc7ccc(C#N)c(Cl)c7)CC6)nn5)CC3)C4)cc1)=N[C@@H](C)c1nnc(C)n1-2` [I-435], the GI50 in experiment [1] (72 h) was greater than 3000 nM; with T47D cells (Homo sapiens, T47D, 72 h), greater than 3000 nM; with VCaP cells (Homo sapiens, VCaP, 72 h) it was less than 500 nM; in experiment [2] (72 h) it was less than 500 nM.
